According to patent publication US20120077851A1, “Urea Derivatives as Kinase Inhibitors” (MEDOLUTION LIMITED, priority 2009, published 2012):

Assay: Pharmacokinetics of Compound A and Regorafenib in rats
Format: in vivo
Conditions: compared to Regorafenib

T1/2: prolonged T1/2
clearance: significant slower clearance
pharmacokinetic profile (FIG. 1, rats): better pharmacokinetic profile
exposure (oral administration route at equal dose): improved exposure
Structure (SMILES): [2H]C([2H])([2H])NC(=O)c1cc(Oc2ccc(NC(=O)Nc3ccc(Cl)c(C(F)(F)F)c3)c(F)c2)ccn1 [Compound A, 4-(4-(3-(4-chloro-3-(trifluoromethyl)phenyl)ureido)-3-fluorophenoxy)-N-d3-methylpicolinamide]
